Data: patent publication US10683483B2, “Microfabricated platform for mimicking the liver zonation and evaluating method of zonal toxicity using thereof” (Korea Research Institute of Chemical Technology, priority 2019, dated 2020)

What was measured:
[1] = test system: HepaRG cells; experiment: Hepatotoxicity evaluation by dead cell staining (EthD-1) in the microfabricated platform for mimicking the liver zonation; format: cell-based; conditions: 10 mM acetaminophen, 48 hours
Procedure: First, an impermeable fluorescent substance was formed in the inside of HepaRG cells by using cell tracker deep red fluorescent solution in order to trace the location of HepaRG cells. A microfabricated platform for mimicking the liver zonation was prepared by the same conditions and same manners as described in Example 1 by using the prepared HepaRG cells. […] As a control, a culture medium without acetaminophen was used. Upon completion of the culture, the medium was removed and the dead cells were stained with EthD-1 (ethidium homodimer-1).

[2] = test system: HepaRG cells; experiment: Hepatotoxicity evaluation by cell viability (cell counting kit-8) of pieces of the microfabricated platform for mimicking the liver zonation; format: cell-based; conditions: 48 hours; acetaminophen 12.5-200 mM, tamoxifen 31.2-500 μM; pieces along CHIR gradient
Procedure: The 96-well plate was cultured at 37° C. for 48 hours. Upon completion of the reaction, cells were washed with PBS and the absorbance of the cells was measured using cell counting kit-8 (Dojindo Molecular Technologies) according to the manufacturer's protocol.

[3] = test system: liver tissue; experiment: Hepatotoxicity in liver tissue of a rat model (H&E staining); format: in vivo, Sprague Dawley rats; conditions: oral, once a day for 3 days; acetaminophen 1,000 mg/kg, tamoxifen 60 mg/kg
Description: After the administration, the animals were sacrificed, from which the liver tissues were obtained. The obtained liver tissues were stained with H&E, followed by observation under a microscope.

CC(=O)Nc1ccc(O)cc1 [acetaminophen]
EthD-1 staining of dead cells (fluorescence intensity) by zone [1]: high fluorescence intensity in those hepatocytes exposed to a relatively high concentration of CHIR
zone-specific sensitivity of cell viability to drug induced toxicity [2]: more sensitive to the acetaminophen induced toxicity
liver histopathology by zone (H&E) [3]: increased mitosis (yellow triangle), necrosis (blue triangle) and inflammatory cell infiltration (green triangle) in the central vein of the liver (zone 3)
